Experiments:
[1] = system: EYFP and BFP expression in HEK293T cells; experiment: Dual PROTAC-based inducible gene cassettes (EYFP and BFP), microscopy; format: cell-based, human; settings: MZ1 (100 nM) and dTAG-13 (100 nM) PROTAC-CID systems, FIG. 16A
Procedure: Transfection and microscopy. HEK293T cells (American Type Culture Collection, no. CRL-3216) were cultured with high-glucose Dulbecco's modified Eagle's medium (DMEM) (Thermo Fisher Scientific no. 10569044) with 10% fetal bovine serum (FBS) (Thermo Fisher Scientific no. 10437028) and 1×penicillin-streptomycin (Thermo Fisher Scientific no. 15140122) at 37° C. with 5% CO2. Except for the data in FIGS. 3C, 3E, and 3H, cells were plated into 96 well plate (Corning no. 3598) and transfected by Polyethyleneimine Max (PEI Max) (Polysciences no. 24765-1). 1.5 μL PEI Max (1 mg/mL, pH=7.1) and 100 μl DMEM were mixed with plasmids to be slowly dropped into the cell medium after 30 mins of incubation. Medium was changed 12 hours post-transfection. The inductive small molecules, including Rapamycin (STEM CELL technologies no. 73362), dTAG-13 (TOCRIS no. 6605/5), dTAG^V-1 (TOCRIS no. 6744-5), dBRD9 (TOCRIS no. 6606/5), dTRIM24 (TOCRIS no. 6607/5), MZ1 (TOCRIS no. 6154/5), AT1 (TOCRIS no. 6356/5), TL13-12 (TOCRIS no. 6744/5), TL13-112 (TOCRIS no. 6745/5), dTAG-7 (TOCRIS no. 69125), ZXH3-26 (TOCRIS no. 6713/5) and ABA (GoldBio no. A-050-100), dissolved in Dimethyl sulfoxide (DMSO) (Sigma, no. D8418) were added. For the microscopy observation, the images were taken by Microscopy EVOS (Life Technologies) and processed by ImageJ (Schneider et al., 2012). If not otherwise noted, 60 ng of each plasmid were used for each sample.
The inventors next tested the feasibility of dual PROTAC-based inducible gene cassettes (FIG. 15). In the first cassette, GAL4 was fused with FKBP12^F36V, and VHL was ligated with VPR to drive EYFP expression in response to dTAG^V-1. In the second cassette, TetR was fused with BRD9BD, and CRBN was connected with VPR to drive blue fluorescence protein (BFP) expression in the presence of dBRD9. […] As biological computation relies on the protein or DNA to execute Boolean logic gate operation in living organisms for cell discrimination and disease diagnosis (3, 11, 42), the inventors next explored the possibility of PROTAC-CID enabled logic gate biological computation. By placing EYFP under control of the TRE (Tetracycline response element) and pUAS-1 promoter, the inventors observed strong EYFP expression by using one or two PROTACs, achieving clear logic OR gate responses (FIGS. 2C and 16B). To develop a more sophisticated logic AND gate, the inventors took advantage of two orthogonal site-specific DNA recombinases (Cre and Dre) for biological computation (43). […] In this gene circuit, only in the presence of both dTAG-13 and dBRD9 inducers, Dre and Cre can be expressed to remove their respective “STOP” signals, resulting in the eventual GFP expression as a clear logic AND readout (FIGS. 2D and 16C).

[2] = system: endogenous HEK3 locus in HEK293T cells; experiment: Inducible prime editing, His6 Tag insertion (Sanger sequencing, TIDE); format: cell-based, human; settings: high TRE3G-driven PE2 plasmid dose (120 ng per well), 100 nM dTAG-13, 3 days, FIG. 3H
Procedure: Prime editing measurement. HEK293T cells were seeded into 96 well plates (Corning no. 3598). When the cells reach 20% confluency, 265 ng to 290 ng plasmids (See Table 1 for plasmid dosage used in each condition) were firstly mixed with 25 μL DMEM. 0.5 μL Lipofectamine 2000 (Life Technology no. 11661089) was incubated with 25 μL DMEM for 5 min. Next, plasmid solution was mixed with the Lipofectamine 2000 solution for 20 min and added into the cells gently. After 12 h, the supernatants were changed with fresh 10% FBS (Thermo Fisher Scientific no. 10437028) DMEM medium (Thermo Fisher Scientific no. 10569044) supplied with Puromycin (10 μg/mL Thermo Fisher Scientific no. A1113803) and 100 nM dTAG-13 (TOCRIS no. 6605/5) or DMSO (Sigma, no. D8418). 3 days post-induction, the supernatant was removed and supplied with 100 μL lysis buffer (10 mM tris-HCl (pH=7.5), 0.05% SDS, and proteinase K (25 μg/mL, Thermo Fisher Scientific no. 01169965)) followed by 37° C. 1 h, 58° C. 30 min and inactivated at 95° C. for 20 min. […] The insertion efficiency was analyzed online in TIDE (https://tide.nki.nl/) (Brinkman et al., 2018) with the setting (left boundary=100, Decomposition window (115-685 bp), Indel size range (28 bp), P-value threshold=0.001).

Cc1ncsc1-c1ccc(CNC(=O)[C@@H]2C[C@@H](O)CN2C(=O)[C@@H](NC(=O)COCCOCCOCCNC(=O)C[C@@H]2N=C(c3ccc(Cl)cc3)c3c(sc(C)c3C)-n3c(C)nnc32)C(C)(C)C)cc1 [MZ1]
gene activation from dual inducible cassettes [1]: single gene activation with one PROTAC small molecule and dual-gene activation using both PROTACs

CC[C@H](C(=O)N1CCCC[C@H]1C(=O)O[C@H](CCc1ccc(OC)c(OC)c1)c1ccccc1OCC(=O)NCCCCCCOc1cccc2c1C(=O)N(C1CCC(=O)NC1=O)C2=O)c1cc(OC)c(OC)c(OC)c1 (stereo partly drawn) [dTAG-13]
prime editing efficiency (His6 Tag insertion) [2]: more than 20% | gene activation from dual inducible cassettes [1]: single gene activation with one PROTAC small molecule and dual-gene activation using both PROTACs
